Results on two molecules are retold here after patent publication US7456197B2, “Pyridinium cationic lipids as gene transfer agents” (The Texas A&M University System, priority 2003, dated 2008).

In data set [1] the test system is lung cancer cell line NCI-H23. Put plainly: Luciferase (pGL3) transfection efficiency of lipoplexes, NCI-H23. It counts as cell-based, human. To be noted: exposure from one hour to three hours; data not shown.
The next data set deals with cancer cell line NCI-H23. Description: WST-1 viability assay of transfected cells. The data set is classed as cell-based, human. As to the method:
FIG. 6. Viability assay results for the cancer cell line NCI-H23 transfected with 5AMyr-5EMyr and DOTAP (Cl^−)-based lipoplexes. The other characteristics were the same as in the transfection experiment represented in FIG. 5.
In order to assess the cytotoxicity associated with every anion, a WST-1^28 viability assay was conducted in parallel.
(Tetrazolium assays rely on reduction of a dye to a coloured formazan, in cell work by metabolically active cells.)

Data set [2] in a line: Critical (phase transition) temperature Tc by differential scanning calorimetry. The data set is classed as physicochemical. As to the method: General. Melting points for the diols and the phase transition temperature Tc for the cationic lipids were determined by differential scanning calorimetry (DSC), using a TA-Instruments Q100 DSC, and a heating rate of 5° C./minute. The IR spectra were recorded on a Nicolet Avatar 360 FTIR spectrophotometer in the range 650-4000 cm^−1 using a ZnSe—attenuated total reflectance (ATR) accessory. The compounds were solved in a small amount of solvent (MeOH for the diols, CHCl3 for the lipids), and the resulted solutions were left to evaporate to dryness on the surface of the ZnSe crystals of the ATR accessory. The NMR spectra were recorded at ≈303 K with a Varian Inova spectrometer equipped with a 5 mm indirect detection probe, operating at 500 MHz for ^1H-NMR and at 125 MHz for ^13C-NMR. Chemical shifts are reported as δ values, using TMS as internal standard for proton spectra and the solvent resonance for carbon spectra. Assignments were made based on signal intensity, selective decoupling, COSY (^1H-^1H) and HETCOR (^1H-^13C) sequences. Elemental analyses were performed by combustion, using a Perkin Elmer 2400 Series II CHNS analyser.
(§1) Dioleoylphosphatidylethanolamine (DOPE), cholesterol (CHOL), N-(2,3-dioleoyloxypropyl)-N,N,N-trimethylammonium chloride (DOTAP) were commercial products. The purity of the lipids was checked by thin layer chromatography and also by differential scanning calorimetry (DSC), which was also used for determining the critical temperature Tc. For the preparation of the liposomes a protocol optimized for this type of compounds was adopted as follows. The cationic lipid (with or without helper lipid) was dissolved in chloroform/methanol (2/1, v/v) to reach a final concentration of 1 mM for the charged species. From this stock solution 50 μL were aliquoted in a 1 mL tube and the solvent was evaporated in a SpeedVac evaporator, under vacuum, for 1 h. The dried lipid film was prepared by removing the traces of organic solvent in a dessicator, over Drierite®, under vacuum, overnight. The film was hydrated with 500 μL sterile phosphate buffer saline (PBS) the tube was purged with sterile N2, and vortexed for 1 minute. The liposomes were generated by sonicating the tube in a water bath sonicator for 5-30 minutes at 62° C. and at 37° C. for DOTAP. After sonication the preparations were allowed to reach room temperature.
Materials and Methods. Melting points for the diols, acetates and ketals were determined on a Boetius heating plate microscope and are uncorrected. For the cationic lipids 21 and 25 the phase transition temperature Tc was determined by differential scanning calorimetry (DSC), using a TA-Instruments Q100 DSC, and a heating rate of 5° C./minute. The IR spectra were recorded on a Nicolet Avatar 360 FTIR spectrophotometer, in the range 650-4000 cm^−1, using a ZnSe—attenuated total reflectance (ATR) accessory. The compounds were solved in a small amount of solvent (MeOH for the diols, CHCl3 for the esters), the resulted solutions being left to evaporate to dryness on the surface of the ZnSe crystals of the ATR accessory. This technique was imposed by the poor results obtained in transmission mode for some of the compounds, due to the lack of crystallization, hygroscopicity and other problems related with working with KBr pellets. The NMR spectra were recorded at ≈303 K with a Varian Gemini 300BB spectrometer operating at 300 MHz for ^1H and at 75 MHz for ^13C. Chemical shifts are reported as δ values, using TMS as internal standard for proton spectra and the solvent resonance for carbon spectra: 77.00 ppm in CDCl3, 39.50 ppm in DMSO-d6, the line from 123.50 ppm in pyridine-d5, 62.80 ppm in nitromethane-d3, 30.10 ppm in dimethylformamide-d7. Assignments were made based on signal intensity, selective decoupling and COSY (^1H-^1H) and HETCOR (^1H-^13C) sequences. Nitrogen elemental analysis was performed by combustion, mixing the samples with small amounts of quartz sand.
On the technique in general: In DSC, transitions show as peaks or steps in heat flow.

The test system of data set [3] is lung cancer cell line NCI-H23. Description: Luciferase (pGL3) transfection efficiency of lipoplexes, NCI-H23. To be noted: 5Myr/Chol 1:1, PBS, sonicated two sequences of 15 minutes, FIG. 5. The data set is classed as cell-based, human. As to the method:
The three series of cationic lipids newly synthesized were assessed for their transfection efficiency in vitro, using the experimental conditions optimized in a previous study.^23 Essentially the cationic lipids were mixed with cholesterol at a 1:1 molar ratio, dissolved in chloroform/methanol and dried under vacuum to generate a lipid film. The dried lipid film was hydrated with sterile phosphate buffer isotonic saline with pH=7.4 (PBS) and sonicated to yield cationic liposomes. The resulting liposomal solution was allowed to react with a DNA solution to form the final cationic lipid-DNA complexes (lipoplexes), which were assessed for transfection efficiency using different cell cultures. We used a pGL3 plasmid (Promega, Madison, Wisc.), encoding a firefly luciferase gene under the control of the constitutively active SV40 promoter as the reporter for the transfection efficiency. An optimal^23 electrostatic charge ratio cationic lipid/DNA of 2:1 was used in all preparations. […] The ability of these new cationic lipids to generate relatively small cationic liposomes could be attributed to the relatively large curvature radius induced in the bilayer by the bulky pyridinium cationic head.
as §1
For generating the lipoplexes, 1.4-2.8 μL plasmid DNA solution (0.5 μg/μL) was diluted with 100 μL Optimem®. A liposome solution was prepared separately by diluting the initial liposomal stock solution (0.1 mM in cationic lipid) with Optimem® in specified proportions, to reach a final volume of 50 μL. Over this liposome solution 50 μL of the DNA stock solution was added, the tube was incubated for 30 minutes at room temperature and then the content diluted with 500 μL Optimem® (final volume of the lipoplex stock solution: 600 μL).
The lipoplexes was tested for their transfection properties over five different cancer cell lines—breast carcinoma (MCF-7 and MDA-Mb231), lung carcinoma (NCI-H23), prostate carcinoma (DU-145) and brain carcinoma (SWB-95). The cells were maintained in 10% fetal bovine serum (FBS)—enriched RPMI 1640 at 37° C. and 5% CO2 in a humidified atmosphere. Twenty-four hours prior to transfection the cells were transferred in 96-wells microtiter plate at a density of 20,000 cells/well. Each well received 100 μL medium and the plate was incubated in the same conditions. All experiments were done in triplicate or quadruplicate.
Immediately before transfection the medium was removed from each well and the cells were briefly washed with 200 μL sterile PBS. After removal of the PBS each well received 100 μL lipoplex stock solution and the plate was placed in the incubator for 1 hour. Then, 100 μL medium was added to each well and the plate was incubated for 24 hours. […]

Data set [4] concerns HeLa cells (human carcinoma cell line ATCC No. CCL-2). Put plainly: Luciferase (pGL3-Control) transfection efficiency, HeLa cells. It counts as cell-based. To be noted: no helper lipid, DOTAP as reference. As for the experimental part:
Transfection experiments were carried out in vitro on HeLa cells (human carcinoma cell line ATCC No. CCL-2), using a pGL3-Control plasmid (Promega, Madison, Wisc.), which encodes the firefly luciferase reporter. The structurally related and commercially available DOTAP (2) mentioned earlier was chosen as reference.
HeLa cell line was obtained from ATCC, MD. The plasmid pGL3-control, encoding a firefly luciferase reporter was from Promega (Madison, Wisc.). As transfection reference we used N-[1-(2,3-dioleoyloxy)propyl]-N,N,N-trimethylammonium methylsulfate (DOTAP), obtained from Roche Molecular Biochemicals (Indianapolis, Ind.). The BCA protein assay kit was from Pierce (Rockford, Ill.).
All of the pyridinium cationic lipids, along with the DOTAP reference, were tested in triplicate in two independent assays. The pyridinium cationic lipids containing tetrafluoroborate (BF4^−) or perchlorate (ClO4^−) anion were dissolved in ethanol/chloroform. The lipid solution was evaporated to dryness using a Speedvac rotary evaporating device, under vacuum. Traces of solvents were removed from the lipid film by keeping the vials under vacuum for another 3 hours. Ultrapure water was added to the dry lipid film, so that a final 1 μg/μL concentration could be reached, and the lipid film was allowed to hydrate overnight. […]

“Also recorded” adds a separate entry of the source.

Turning to `CCCCCCCCCCCCCC(=O)OCC(COC(=O)CCCCCCCCCCCCC)[n+]1c(C)cc(C)cc1C.[Cl-]` [Lipid 5DMyr, 1-(1,3-dimyristoyloxypropane-2-yl)-2,4,6-trimethylpyridinium chloride], in data set [1], the “transfection efficiency on longer cell exposure to lipoplexes” value is reported as “higher transfection efficiencies”. Besides, the “cytotoxicity (WST-1 viability)” value in the data set with cancer cell line NCI-H23 (NCI-H23 transfected with lipoplexes, Chol 1:1, FIG. 6) is listed as “minimum cytotoxicity; also recorded: lower cytotoxic effect”. In addition, the “cytotoxic effect on longer cell exposure to lipoplexes” value with cancer cell line NCI-H23 (exposure from one hour to three hours, data not shown) is recorded as “without any visible cytotoxic effect”. The “Tc (critical temperature), Pure” value in data set [2] (pure lipid) is 76.3 °C. Moreover, in data set [2] (with cholesterol, 1:1 molar ratio), the “Tc (critical temperature), With cholesterol (1:1 molar ratio)” value turned out to be 81.2 °C. Further, the “transfection efficiency, counterion study” value in data set [3] is on record as “surpassed DOTAP in transfection efficiency”.

In the case of `CCCCCCCCCCCCCCCC(=O)OCC(COC(=O)CCCCCCCCCCCCCCC)[n+]1c(C)cc(C)cc1C.F[B-](F)(F)F` [Lipid 25AbP, 1-(1,3-Dipamitoyloxypropane-2-yl)-2,4,6-trimethylpyridinium tetrafluoroborate], the “Tc (phase transition temperature)” value in data set [2] (lipids 21 and 25, DSC, heating rate 5° C./minute) came out at 70 °C. Also, the “transfection efficiency (in words)” value in data set [4] was “comparable with that of DOTAP”.
